Read-outs that look alike come from different tables or passages of the source. Where a SMILES comes first, the peptide text is derived from it. [ ]: non-standard residue; d: D form. Gly(Nα-oleyl) = CCCCCCCC/C=C\CCCCCCCCNCC(=O)O; N(2-ethylhexyl)Gly = CCCCC(CC)CNCC(=O)O; Gly(N-dodecyl) = CCCCCCCCCCCCNCC(=O)O; N(CH(CH2OH)2)Gly = O=C(O)CNC(CO)CO; N(octyl)Gly = CCCCCCCCNCC(=O)O; NDecylGly = CCCCCCCCCCNCC(=O)O
Tests used:
[1] = Particle size and polydispersity (PDI) of delivery vehicles by dynamic light scattering; format: physicochemical; conditions: Table 5; delivery vehicle comprising the peptoid, Formulation D22, fLuc mRNA
Description: The resulting delivery vehicle complexes were evaluated by dynamic light scattering (DLS) to determine the volume average particle size/diameter (nm) and the size polydispersity index (PDI) within the delivery vehicle complex.
Particle size. Particle sizes and size distributions were measured using a Wyatt DynaPro® Plate Reader III. In general, formulated samples were diluted to 2 ng/μL in 100 µL PBS. Data is reported as the hydrodynamic diameter (in nm) of the cumulant fit of the correlation function, and the polydispersity of that measurement.
(§1) In one particular instance, the size and polydispersity (PDI) of delivery vehicles was measured by dynamic light scattering in PBS using a DynaPro® plate reader III. The zeta potential of delivery vehicles was determined using Nano-ZS™ particle analyzer. Zeta sample was diluted to 30 uM total lipid in a weakly buffered solution of 10 mM HEPES, 10 mM MES, 10 mM ammonium acetate pH 7. Measurements were collected in duplicate for over 30 run with the voltage manually set to […]

[2] = Percent encapsulated mRNA, RiboGreen assay; format: physicochemical; conditions: Table 5; delivery vehicle comprising the peptoid, Formulation D22, fLuc mRNA
Description: Percent encapsulation. The percentage of mRNA encapsulated within the delivery vehicle complexes containing Fluc mRNA was determined using a modified RiboGreen® assay. In general, formulated mRNA samples were diluted to 500 ng/ml in Tris-EDTA buffer with or without Triton-X™. RiboGreen® (Invitrogen) was added at a 200-fold dilution, and the plate was incubated for 5 minutes. Fluorescence was measured at Ex. […]/Em. 520 nm and encapsulated mRNA was calculated by taking the ratio of fluorescence for non-lysed particles versus lysed particles.
The mRNA concentration and the percentage of encapsulated mRNA were determined using a fluorescence-based Quant-iT™ RiboGreen® RNA Reagent Kit using a literature procedure. To determine the mRNA concentration, delivery vehicles were incubated with 2% Triton™ X-100 for 10 min to release entrapped mRNA, followed by addition of RiboGreen® RNA reagent. The fluorescence intensity of mRNA-RiboGreen® reagent complex (excitation at 485 nm and emission at 530 nm) was detected using a microplate reader. The ratio of fluorescence without and with Triton™ X-100 were used to calculate the percentage of encapsulated mRNA.

[3] = Zeta potential of delivery vehicles; format: physicochemical; conditions: Table 5; delivery vehicle, pH 7 buffer; in mV (unit assumed)
Description: as §1

[4] = Apparent particle pKa, TNS fluorescence assay; format: physicochemical; conditions: Table 5; apparent particle pKa of delivery vehicle
Description: The apparent particle pKa was assessed by a TNS fluorescence assay. Briefly, particles were diluted to 130 uM total lipid in TNS buffer ranging in pH 3-11 for 10 minutes with […] of TNS probe. The fluorescence was measured at room temperature in a plate reader ex 320/em 445. Fluorescence intensity was normalized to the minimal and maximal values and the pKa was determined by a 3 parameter fit to determine the half maximum of the curve.

[5] = RBC hemolysis as metric for fusogenicity; format: cell-based; conditions: sheep red blood cells (RBCs), 5% v/v, Table 5, delivery vehicle, 37° C. 45 min
Description: RBC hemolysis was used as a metric for fusogenicity of LNPs at low pH. […] Particles were diluted to […] total lipid in well with 5% RBC solution and incubated at 37° C. for 45 min. Supernatant was collected and absorbance read on a microplate reader at 425 nm. Fusion was normalized to a fully lysed sample with 2% Triton™ and a buffer-only control. % hemolysis=100*[(ABS T-background)−(ABS sample-background)/(ABS T-background)].

[6] = pH 5, read-out: Hemolysis at pH 5
[7] = pH 7, read-out: Hemolysis at pH 7

SMILES	PDI [1]	Particle Size (nm) [1] [nm]	% Encapsulation [2] [%]	Zeta Potential [3]	pKa (TNS) [4]	hemolysis at 45 min, 150 mM total lipid [5, 6] [%]	hemolysis at 45 min, 150 mM total lipid [5, 7] [%]
CCCCCCCC/C=C\CCCCCCCCN(CC(=O)N(CCCCCCCCCC)CC(=O)N(CCCCCCCC/C=C\CCCCCCCC)CC(=O)N(CCCCCCCCCC)CC(N)=O)C(=O)CNC(CO)CO [Compound 6]	0.39	71.3	85.9	−0.785	6.373	21.5	60.6
CCCCCCCC/C=C\CCCCCCCCN(CC(N)=O)C(=O)CN(CCCCCCCCCC)C(=O)CN(CCCCCCCC/C=C\CCCCCCCC)C(=O)CNC(CO)CO [Compound 7] (H-[N(CH(CH2OH)2)Gly][Gly(Nα-oleyl)][NDecylGly][Gly(Nα-oleyl)]-NH2)	0.13	62.3	86.3	−2.31	6.283	6.1	23.8
CCCCCCCCCCCCN(CC(N)=O)C(=O)CN(CCCCCCCCCCCC)C(=O)CN(CCCCCCCCCCCC)C(=O)CN(CCCCCCCCCCCC)C(=O)CN(CCCCCCCCCCCC)C(=O)CN(CCCCCCCCCCCC)C(=O)CNC(CO)CO [Compound 16] (H-[N(CH(CH2OH)2)Gly][Gly(N-dodecyl)][Gly(N-dodecyl)][Gly(N-dodecyl)][Gly(N-dodecyl)][Gly(N-dodecyl)][Gly(N-dodecyl)]-NH2)	0.24	93.1	30.6	−3.58	5.554	4.1	2.2
CCCCCCCC/C=C\CCCCCCCCN(CC(N)=O)C(=O)CN(CCCCCCCC)C(=O)CN(CCCCCCCC/C=C\CCCCCCCC)C(=O)CNC(CO)CO [Compound 20] (H-[N(CH(CH2OH)2)Gly][Gly(Nα-oleyl)][N(octyl)Gly][Gly(Nα-oleyl)]-NH2)	0.18	65.4	70.1	3.41	5.773	16.7	33.3
CCCCCCCCCCCCN(CC(N)=O)C(=O)CN(CCCCCCCCCCCC)C(=O)CN(CCCCCCCCCCCC)C(=O)CN(CCCCCCCCCCCC)C(=O)CNC(CO)CO [Compound 21]	0.262	66.4	81.2	2.7	5.406	35.8	59.5
CCCCC(CC)CN(CC(N)=O)C(=O)CN(CC(CC)CCCC)C(=O)CN(CC(CC)CCCC)C(=O)CN(CC(CC)CCCC)C(=O)CNC(CO)CO (stereo not shown) [Compound 24]	0.12	66.9	97.6	−1.59	6.43	100	99.9

Further lines, with some results ahead:

PDI [1]	Particle Size (nm) [1] [nm]	% Encapsulation [2] [%]	Zeta Potential [3]	pKa (TNS) [4]	SMILES	hemolysis at 45 min, 150 mM total lipid [5, 6] [%]	hemolysis at 45 min, 150 mM total lipid [5, 7] [%]
				5.786	CCCCCCCCCCN(CC(N)=O)C(=O)CN(CCCCCCCCCC)C(=O)CN(CCCCCCCCCC)C(=O)CN(CC(CC)CCCC)C(=O)CN(CCCCCCCCCC)C(=O)CN(CCCCCCCCCC)C(=O)CN(CCCCCCCCCC)C(=O)CN(CC(CC)CCCC)C(=O)CNC(CO)CO (stereo not shown) [Compound 8]	0.5	-0.1
0.14	94.9	95.2	−1.6	5.906	CCCCCCCC/C=C\CCCCCCCCN(CC(=O)N(CCCCCC)CC(=O)N(CCCCCC)CC(=O)N(CCCCCC)CC(=O)N(CCCCCCCC/C=C\CCCCCCCC)CC(=O)N(CCCCCC)CC(=O)N(CCCCCC)CC(=O)N(CCCCCC)CC(N)=O)C(=O)CNC(CO)CO [Compound 9]	1.1	0.1
0.3	122.5	97.0	−2.71	6.052	CCCCCCCCN(CC(N)=O)C(=O)CN(CCCCCC)C(=O)CN(CCCCCC)C(=O)CN(CCCCCC)C(=O)CN(CCCCCC)C(=O)CN(CCCCCC)C(=O)CN(CCCCCC)C(=O)CN(CCCCCCCC)C(=O)CNC(CO)CO [Compound 10]	1.1	0
0.102	122.4	82.0	−5.17	5.686	CCCCCCN(CC(N)=O)C(=O)CN(CC(CC)CCCC)C(=O)CN(CCCCCC)C(=O)CN(CC(CC)CCCC)C(=O)CN(CCCCCC)C(=O)CN(CC(CC)CCCC)C(=O)CN(CCCCCC)C(=O)CN(CC(CC)CCCC)C(=O)CNC(CO)CO (stereo not shown) [Compound 13]	1.8	0.6
Multimodal	2228.3	57.3	−3.14	6.825	CCCCCCN(CC(N)=O)C(=O)CN(CCCCCC)C(=O)CN(CCCCCC)C(=O)CN(CCCCCC)C(=O)CN(CCCCCC)C(=O)CN(CCCCCC)C(=O)CN(CCCCCC)C(=O)CN(CCCCCC)C(=O)CNC(CO)CO [Compound 14]	9.1	0.2
0.111	106.6	84.5	−8	5.909	CCCCCCCCCCCCN(CC(=O)N(CCCCCC)CC(=O)N(CCCCCC)CC(=O)N(CC(=O)N(CCCCCCCCCCCC)CC(=O)N(CCCCCC)CC(=O)N(CCCCCC)CC(N)=O)CC(CC)CCCC)C(=O)CN(CC(CC)CCCC)C(=O)CNC(CO)CO (stereo not shown) [Compound 15]	0.9	0.6
0.11	96.7	50.3	−17.8	5.656	CCCCCCCCCCCCN(CC(=O)N(CCCCCC)CC(N)=O)C(=O)CN(CCCCCCCCCCCC)C(=O)CN(CC(CC)CCCC)C(=O)CN(CCCCCC)C(=O)CN(CCCCCCCCCCCC)C(=O)CN(CCCCCCCCCCCC)C(=O)CN(CC(CC)CCCC)C(=O)CNC(CO)CO (stereo not shown) [Compound 17]	2.1	0.3
0.179	51.5	83.3	4.24	5.888	CCCCCCCCCCCCN(CC(=O)N(CCCCCCCCCC)CC(=O)N(CCCCCCCCCCCC)CC(=O)N(CCCCCCCCCC)CC(N)=O)C(=O)CNC(CO)CO [Compound 22]	58.9	81.5
Multimodal	2058.2		−6.37	4.595	CCCCCCCCCCN(CC(N)=O)C(=O)CN(CC(CC)CCCC)C(=O)CN(CCCCCCCCCC)C(=O)CN(CCCCCCCCCC)C(=O)CN(CC(CC)CCCC)C(=O)CN(CCCCCCCCCC)C(=O)CNC(CO)CO (stereo not shown) [Compound 43] (H-[N(CH(CH2OH)2)Gly][NDecylGly][N(2-ethylhexyl)Gly][NDecylGly][NDecylGly][N(2-ethylhexyl)Gly][NDecylGly]-NH2)	1.2	0.2
